Measurements reported in ChEMBL document CHEMBL4630902 (2021).
Each block holds one compound with its values, some of them ahead of it.

Assays:
[1] = target: Alpha-2C adrenergic receptor (Homo sapiens) (UniProt P18825); conditions: Compound concentration 10.0 uM
[2] = target: 5-hydroxytryptamine receptor 1D (Homo sapiens) (UniProt P28221); conditions: Compound concentration 10.0 uM
[3] = target: D(3) dopamine receptor (Homo sapiens) (UniProt P35462); conditions: Compound concentration 10.0 uM
[4] = target: 5-hydroxytryptamine receptor 7 (Homo sapiens) (UniProt P34969); conditions: Compound concentration 10.0 uM
[5] = target: Sigma non-opioid intracellular receptor 1 (Homo sapiens) (UniProt Q99720); conditions: Compound concentration 10.0 uM
[6] = target: Delta-type opioid receptor (Homo sapiens) (UniProt P41143); conditions: Compound concentration 10.0 uM
[7] = target: T1, GABA-A receptor; anion channel (Rattus norvegicus) (UniProt O09028+P15431+P18506+P18508+P19969+P20236+P23574+P23576+P28471+P28473+P30191+P62813+P63079+P63138+Q91ZM7+Q9ES14); conditions: Compound concentration 10.0 uM
[8] = target: Muscarinic acetylcholine receptor M3 (Homo sapiens) (UniProt P20309); conditions: Compound concentration 10.0 uM
Chain of Muscarinic acetylcholine receptor M3 (Homo sapiens) (P20309 whole entry, looked up): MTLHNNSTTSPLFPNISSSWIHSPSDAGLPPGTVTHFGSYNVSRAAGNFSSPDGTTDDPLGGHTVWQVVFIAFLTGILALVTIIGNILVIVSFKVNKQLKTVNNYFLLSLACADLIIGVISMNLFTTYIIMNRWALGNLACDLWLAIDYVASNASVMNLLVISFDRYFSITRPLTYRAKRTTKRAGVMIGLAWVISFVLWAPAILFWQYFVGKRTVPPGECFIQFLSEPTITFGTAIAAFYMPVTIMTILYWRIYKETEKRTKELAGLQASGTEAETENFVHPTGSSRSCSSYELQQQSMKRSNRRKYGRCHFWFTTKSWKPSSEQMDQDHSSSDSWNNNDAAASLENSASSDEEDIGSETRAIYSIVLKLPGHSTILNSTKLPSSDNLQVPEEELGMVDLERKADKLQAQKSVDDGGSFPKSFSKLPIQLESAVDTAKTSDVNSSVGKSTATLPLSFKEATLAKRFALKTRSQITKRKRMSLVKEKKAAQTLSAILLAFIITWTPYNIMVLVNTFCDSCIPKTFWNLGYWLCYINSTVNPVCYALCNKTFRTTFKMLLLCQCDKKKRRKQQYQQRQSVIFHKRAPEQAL

[9] = target: Mu-type opioid receptor (Homo sapiens) (UniProt P35372); conditions: Compound concentration 10.0 uM
[10] = target: Alpha-1A adrenergic receptor (Homo sapiens) (UniProt P35348); conditions: Compound concentration 10.0 uM
[11] = target: Histamine H2 receptor (Homo sapiens) (UniProt P25021); conditions: Compound concentration 10.0 uM
Chain of Histamine H2 receptor (Homo sapiens) (P25021 whole entry): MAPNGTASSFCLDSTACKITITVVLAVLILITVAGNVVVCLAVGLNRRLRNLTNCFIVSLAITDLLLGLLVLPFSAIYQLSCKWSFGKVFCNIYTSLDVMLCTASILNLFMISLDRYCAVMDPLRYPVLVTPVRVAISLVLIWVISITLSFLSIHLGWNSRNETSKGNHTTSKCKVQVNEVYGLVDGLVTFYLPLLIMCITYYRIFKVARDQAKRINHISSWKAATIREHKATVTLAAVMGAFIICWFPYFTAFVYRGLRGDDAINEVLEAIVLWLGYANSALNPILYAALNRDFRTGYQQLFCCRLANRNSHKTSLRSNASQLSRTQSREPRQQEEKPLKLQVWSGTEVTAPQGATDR

[12] = target: 5-hydroxytryptamine receptor 1B (Homo sapiens) (UniProt P28222); conditions: Compound concentration 10.0 uM
Chain of 5-hydroxytryptamine receptor 1B (Homo sapiens) (P28222 whole entry): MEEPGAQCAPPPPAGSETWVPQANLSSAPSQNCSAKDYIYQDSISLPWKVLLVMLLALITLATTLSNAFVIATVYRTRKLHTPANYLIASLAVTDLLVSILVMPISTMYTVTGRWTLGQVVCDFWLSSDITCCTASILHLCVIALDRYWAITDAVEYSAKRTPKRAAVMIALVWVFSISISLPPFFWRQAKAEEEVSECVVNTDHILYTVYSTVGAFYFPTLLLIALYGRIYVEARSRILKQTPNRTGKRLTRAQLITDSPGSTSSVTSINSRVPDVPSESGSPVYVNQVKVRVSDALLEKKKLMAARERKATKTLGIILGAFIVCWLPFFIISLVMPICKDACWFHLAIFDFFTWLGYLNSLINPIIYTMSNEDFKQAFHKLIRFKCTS

[13] = target: Muscarinic acetylcholine receptor M5 (Homo sapiens) (UniProt P08912); conditions: Compound concentration 10.0 uM
[14] = target: Beta-2 adrenergic receptor (Homo sapiens) (UniProt P07550); conditions: Compound concentration 10.0 uM
Chain of Beta-2 adrenergic receptor (Homo sapiens) (P07550 whole entry, looked up): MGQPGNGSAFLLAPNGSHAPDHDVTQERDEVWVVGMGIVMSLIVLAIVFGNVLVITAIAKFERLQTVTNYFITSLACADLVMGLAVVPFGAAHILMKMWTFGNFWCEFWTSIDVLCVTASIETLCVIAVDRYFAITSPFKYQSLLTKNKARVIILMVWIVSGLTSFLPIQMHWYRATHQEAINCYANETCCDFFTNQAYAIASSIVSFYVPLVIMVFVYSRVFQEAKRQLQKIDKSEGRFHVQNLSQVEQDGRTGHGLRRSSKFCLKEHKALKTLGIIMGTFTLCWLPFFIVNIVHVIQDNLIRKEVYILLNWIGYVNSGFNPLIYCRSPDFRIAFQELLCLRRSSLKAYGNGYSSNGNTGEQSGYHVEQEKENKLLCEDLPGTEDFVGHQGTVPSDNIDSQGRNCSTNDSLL

[15] = target: Muscarinic acetylcholine receptor M2 (Homo sapiens) (UniProt P08172); conditions: Compound concentration 10.0 uM
Chain of Muscarinic acetylcholine receptor M2 (Homo sapiens) (P08172 whole entry): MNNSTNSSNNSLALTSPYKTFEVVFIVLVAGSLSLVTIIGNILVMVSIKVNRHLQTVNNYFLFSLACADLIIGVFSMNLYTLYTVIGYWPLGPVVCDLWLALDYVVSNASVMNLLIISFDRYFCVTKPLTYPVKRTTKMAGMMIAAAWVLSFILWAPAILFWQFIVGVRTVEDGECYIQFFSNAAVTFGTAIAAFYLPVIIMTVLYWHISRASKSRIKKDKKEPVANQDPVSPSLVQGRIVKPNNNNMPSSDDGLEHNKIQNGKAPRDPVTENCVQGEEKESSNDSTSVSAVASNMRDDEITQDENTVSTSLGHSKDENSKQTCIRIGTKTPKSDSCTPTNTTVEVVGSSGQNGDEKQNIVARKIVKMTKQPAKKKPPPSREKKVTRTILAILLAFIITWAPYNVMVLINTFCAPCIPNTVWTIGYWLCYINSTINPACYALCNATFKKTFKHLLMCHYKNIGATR

[16] = target: D(1B) dopamine receptor (Homo sapiens) (UniProt P21918); conditions: Compound concentration 10.0 uM
Chain of D(1B) dopamine receptor (Homo sapiens) (P21918 whole entry): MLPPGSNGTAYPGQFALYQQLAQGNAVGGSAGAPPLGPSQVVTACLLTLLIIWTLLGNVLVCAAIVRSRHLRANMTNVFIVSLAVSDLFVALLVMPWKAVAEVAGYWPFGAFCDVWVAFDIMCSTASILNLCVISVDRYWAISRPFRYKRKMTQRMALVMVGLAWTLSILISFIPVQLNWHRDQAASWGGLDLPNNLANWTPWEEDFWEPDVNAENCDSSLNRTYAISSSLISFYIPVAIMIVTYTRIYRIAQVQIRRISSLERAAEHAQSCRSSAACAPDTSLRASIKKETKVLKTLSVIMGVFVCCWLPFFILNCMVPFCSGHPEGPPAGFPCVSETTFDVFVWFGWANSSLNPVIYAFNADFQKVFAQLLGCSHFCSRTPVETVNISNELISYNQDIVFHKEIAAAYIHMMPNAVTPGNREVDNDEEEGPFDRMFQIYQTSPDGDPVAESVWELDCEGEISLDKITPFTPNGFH

[17] = target: Muscarinic acetylcholine receptor M4 (Homo sapiens) (UniProt P08173); conditions: Compound concentration 10.0 uM
Chain of Muscarinic acetylcholine receptor M4 (Homo sapiens) (P08173 whole entry): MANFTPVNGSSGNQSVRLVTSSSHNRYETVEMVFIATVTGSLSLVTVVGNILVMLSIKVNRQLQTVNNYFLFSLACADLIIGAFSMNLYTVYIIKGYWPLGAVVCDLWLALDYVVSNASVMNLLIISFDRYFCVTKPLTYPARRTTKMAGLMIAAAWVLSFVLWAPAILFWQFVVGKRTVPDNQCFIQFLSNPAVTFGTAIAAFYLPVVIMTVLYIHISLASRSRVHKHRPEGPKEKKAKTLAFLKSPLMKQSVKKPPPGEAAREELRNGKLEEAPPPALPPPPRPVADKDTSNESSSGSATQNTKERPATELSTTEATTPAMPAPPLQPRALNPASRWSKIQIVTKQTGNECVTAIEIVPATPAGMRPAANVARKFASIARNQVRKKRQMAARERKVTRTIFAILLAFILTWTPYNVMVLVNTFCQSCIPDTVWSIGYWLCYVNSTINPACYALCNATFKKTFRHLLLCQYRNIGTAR

[18] = target: Histamine H1 receptor (Homo sapiens) (UniProt P35367); conditions: Compound concentration 10.0 uM
[19] = target: T1, GABA-A receptor; anion channel (Rattus norvegicus); conditions: Compound concentration 10.0 uM; remark: listed apart in the source
[20] = target: 5-hydroxytryptamine receptor 1E (Homo sapiens) (UniProt P28566); conditions: Compound concentration 10.0 uM
[21] = target: 5-hydroxytryptamine receptor 6 (Homo sapiens) (UniProt P50406); conditions: Compound concentration 10.0 uM
[22] = target: Kappa-type opioid receptor (Homo sapiens) (UniProt P41145); conditions: Compound concentration 10.0 uM
[23] = target: Beta-1 adrenergic receptor (Homo sapiens) (UniProt P08588); conditions: Compound concentration 10.0 uM
[24] = target: D(1A) dopamine receptor (Homo sapiens) (UniProt P21728); conditions: Compound concentration 10.0 uM
[25] = target: Histamine H3 receptor (Homo sapiens) (UniProt Q9Y5N1); conditions: Compound concentration 10.0 uM
Chain of Histamine H3 receptor (Homo sapiens) (Q9Y5N1 whole entry): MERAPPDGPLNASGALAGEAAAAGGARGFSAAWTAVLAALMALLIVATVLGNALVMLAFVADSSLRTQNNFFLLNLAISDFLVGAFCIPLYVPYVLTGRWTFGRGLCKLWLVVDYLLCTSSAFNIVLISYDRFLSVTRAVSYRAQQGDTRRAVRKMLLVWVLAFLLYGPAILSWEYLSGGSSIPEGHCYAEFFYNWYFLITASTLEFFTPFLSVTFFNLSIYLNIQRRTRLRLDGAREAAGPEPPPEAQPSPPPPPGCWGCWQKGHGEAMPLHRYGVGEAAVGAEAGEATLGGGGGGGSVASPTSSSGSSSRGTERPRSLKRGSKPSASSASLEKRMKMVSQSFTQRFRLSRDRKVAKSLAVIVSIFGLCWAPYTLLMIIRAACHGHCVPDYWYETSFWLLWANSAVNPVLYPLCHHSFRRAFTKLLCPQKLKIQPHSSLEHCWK

[26] = target: Sigma intracellular receptor 2 (Homo sapiens) (UniProt Q5BJF2); conditions: Compound concentration 10.0 uM
Chain of Sigma intracellular receptor 2 (Homo sapiens) (Q5BJF2 whole entry): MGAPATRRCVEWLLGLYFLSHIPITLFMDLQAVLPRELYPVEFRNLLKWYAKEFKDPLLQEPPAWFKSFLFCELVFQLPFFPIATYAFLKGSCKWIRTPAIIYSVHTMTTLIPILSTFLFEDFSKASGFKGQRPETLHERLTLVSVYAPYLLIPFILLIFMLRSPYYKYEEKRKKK

[27] = target: D(4) dopamine receptor (Homo sapiens) (UniProt P21917); conditions: Compound concentration 10.0 uM
[28] = target: 5-hydroxytryptamine receptor 2A (Homo sapiens) (UniProt P28223); conditions: Compound concentration 10.0 uM
[29] = target: Alpha-1D adrenergic receptor (Homo sapiens) (UniProt P25100); conditions: Compound concentration 10.0 uM
Chain of Alpha-1D adrenergic receptor (Homo sapiens) (P25100 whole entry): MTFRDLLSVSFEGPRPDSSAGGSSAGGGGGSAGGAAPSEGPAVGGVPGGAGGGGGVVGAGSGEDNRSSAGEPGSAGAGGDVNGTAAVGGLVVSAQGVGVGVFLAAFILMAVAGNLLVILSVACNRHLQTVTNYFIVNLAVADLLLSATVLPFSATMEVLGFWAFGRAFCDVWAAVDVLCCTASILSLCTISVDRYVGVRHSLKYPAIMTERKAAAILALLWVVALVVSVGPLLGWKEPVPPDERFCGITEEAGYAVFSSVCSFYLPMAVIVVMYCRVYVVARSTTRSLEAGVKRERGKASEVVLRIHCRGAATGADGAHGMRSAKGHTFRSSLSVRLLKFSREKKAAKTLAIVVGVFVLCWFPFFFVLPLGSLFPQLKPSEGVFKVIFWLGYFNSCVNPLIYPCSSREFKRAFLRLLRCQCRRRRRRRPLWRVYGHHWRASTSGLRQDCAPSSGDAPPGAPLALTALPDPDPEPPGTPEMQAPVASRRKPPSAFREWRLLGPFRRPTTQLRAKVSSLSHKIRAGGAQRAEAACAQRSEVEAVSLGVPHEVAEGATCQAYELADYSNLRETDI

[30] = target: Alpha-2A adrenergic receptor (Homo sapiens) (UniProt P08913); conditions: Compound concentration 10.0 uM
[31] = target: 5-hydroxytryptamine receptor 3A (Homo sapiens) (UniProt P46098); conditions: Compound concentration 10.0 uM
[32] = target: 5-hydroxytryptamine receptor 1A (Homo sapiens) (UniProt P08908); conditions: Compound concentration 10.0 uM
[33] = target: Muscarinic acetylcholine receptor M1 (Homo sapiens) (UniProt P11229); conditions: Compound concentration 10.0 uM
[34] = target: Alpha-2B adrenergic receptor (Homo sapiens) (UniProt P18089); conditions: Compound concentration 10.0 uM
[35] = target: Beta-3 adrenergic receptor (Homo sapiens) (UniProt P13945); conditions: Compound concentration 10.0 uM
[36] = target: Alpha-1B adrenergic receptor (Homo sapiens) (UniProt P35368); conditions: Compound concentration 10.0 uM
Rattus norvegicus = species on record: Rattus norvegicus; conditions: Compound concentration 10.0 uM
[37] = BET mutant TR-FRET assay (BRDT BD2); set-up: species or system Homo sapiens
[38] = target: Sodium-dependent serotonin transporter (Homo sapiens) (UniProt P31645); conditions: Compound concentration 10.0 uM
[39] = target: D(2) dopamine receptor (Homo sapiens) (UniProt P14416); conditions: Compound concentration 10.0 uM
[40] = target: 5-hydroxytryptamine receptor 5A (Homo sapiens) (UniProt P47898); conditions: Compound concentration 10.0 uM
[41] = target: Sodium-dependent noradrenaline transporter (Homo sapiens) (UniProt P23975); conditions: Compound concentration 10.0 uM
[42] = target: 5-hydroxytryptamine receptor 2C (Homo sapiens) (UniProt P28335); conditions: Compound concentration 10.0 uM
[43] = target: 5-hydroxytryptamine receptor 2B (Homo sapiens) (UniProt P41595); conditions: Compound concentration 10.0 uM
[44] = target: Histamine H4 receptor (Homo sapiens) (UniProt Q9H3N8); conditions: Compound concentration 10.0 uM

Chain of Alpha-2C adrenergic receptor (Homo sapiens) (P18825 whole entry): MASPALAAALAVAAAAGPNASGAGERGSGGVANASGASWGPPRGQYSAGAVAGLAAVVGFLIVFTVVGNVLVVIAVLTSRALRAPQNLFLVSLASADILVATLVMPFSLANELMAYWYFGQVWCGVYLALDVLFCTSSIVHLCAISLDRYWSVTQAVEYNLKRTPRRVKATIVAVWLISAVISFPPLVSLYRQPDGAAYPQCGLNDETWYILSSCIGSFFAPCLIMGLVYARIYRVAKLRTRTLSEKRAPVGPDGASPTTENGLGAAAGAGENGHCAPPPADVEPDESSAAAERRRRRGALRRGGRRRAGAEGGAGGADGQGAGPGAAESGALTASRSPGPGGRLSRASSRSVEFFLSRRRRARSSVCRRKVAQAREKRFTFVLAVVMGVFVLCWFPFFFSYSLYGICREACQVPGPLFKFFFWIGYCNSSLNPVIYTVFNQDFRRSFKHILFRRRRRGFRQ

inhibition [1]: 7.66%
inhibition [2]: -8.07%
inhibition [3]: 4.11%
inhibition [4]: 1.31%
inhibition [5]: 10.2%
inhibition [6]: 17.1%
inhibition [7]: 14.5%
inhibition [8]: 12.6%
inhibition [9]: 4.77%
inhibition [10]: 7.39%
inhibition [11]: 4.49%
inhibition [12]: -8.28%
inhibition [13]: 18%
inhibition [14]: 9.35%
inhibition [15]: -7.3%
inhibition [16]: -7.16%
inhibition [17]: 6.19%
inhibition [18]: -1.58%
inhibition [19]: 74.2%
inhibition [20]: 0.03%
inhibition [21]: -1.21%
inhibition [22]: 41.1%
inhibition [23]: 6.93%
inhibition [24]: -6.73%
inhibition [25]: -5.65%
inhibition [26]: 35.6%
inhibition [27]: 17.7%
inhibition [28]: 11.6%
inhibition [29]: -7.87%
inhibition [30]: 13.8%
inhibition [31]: 10.6%
inhibition [32]: 14.9%
inhibition [33]: 12.1%
inhibition [34]: 22.8%
inhibition [35]: 31%
inhibition [36]: -0.98%
SMILES: CNC(=O)c1cc(C(=O)N[C@H]2[C@@H]3COC[C@@H]32)cc2c1O[C@@H](CF)[C@@H]2c1ccccc1

inhibition [1]: 8.26%
inhibition [2]: -5.14%
inhibition [3]: 81.8%
inhibition [4]: 13.6%
inhibition [5]: 28.4%
inhibition [6]: 2.46%
inhibition [7]: 4.07%
inhibition [8]: 11.2%
inhibition (Rattus norvegicus): 9.06%
pIC50 [37]: 7.4
inhibition [9]: -5.14%
inhibition [10]: -4.55%
inhibition [11]: -3.94%
inhibition [12]: -0.1%
inhibition [38]: 27.2%
inhibition [13]: 2.23%
inhibition [14]: 17.9%
inhibition [15]: -5.52%
inhibition [16]: 28.3%
inhibition [39]: 60.9%
inhibition [17]: 2.78%
inhibition [19]: 30.2%
inhibition [40]: 12.5%
inhibition [41]: 0.32%
inhibition [21]: 16.8%
inhibition [22]: 1.22%
inhibition [42]: 22.2%
inhibition [23]: 6.03%
inhibition [24]: 9.7%
inhibition [25]: -9.57%
inhibition [26]: 14.3%
inhibition [27]: 81.6%
inhibition [28]: 13.4%
inhibition [29]: 3.51%
inhibition [30]: 1.67%
inhibition [31]: 20.2%
inhibition [32]: 8.96%
inhibition [43]: 28.2%
inhibition [44]: 9.36%
inhibition [34]: 12.5%
inhibition [35]: 15.5%
inhibition [36]: 1.49%
SMILES: CNC(=O)c1cc(C(=O)N[C@H]2[C@@H]3COC[C@@H]32)cc2c1O[C@H](CF)[C@H]2c1ccccc1 [GSK973]
